Assay results reported in ChEMBL document CHEMBL1811807, “Evaluation of influence of Ap4A analogues on Fhit-positive HEK293T cells; cytotoxicity and ability to induce apoptosis” (Bioorg Med Chem, 2011).
Activity calls are given as the source filed them. The rule behind the calls is not given here.

Assays:
[1] = Stability in medium collected from human HEK293T cells assessed as intact compound level at 1 mM incubated up to 48 hrs at 37 degC; format: ADME, cell-based, HEK-293T; settings: read-out: Stability
HEK-293T [2] = experiment: Induction of apoptosis in Fhit-positive HEK293T cells assessed as caspase-3 activation at 0.5 to 5 uM after 18 hrs by fluorescent assay; format: functional, Homo sapiens
HEK-293T [3] = experiment: Cytotoxicity in Fhit-positive HEK293T cells after 72 hrs bu MTT assay; format: functional, cell-based; settings: Homo sapiens
HEK-293T [4] = experiment: Induction of apoptosis in Fhit-positive HEK293T cells assessed as caspase-3 activation at 0.5 to 1 uM after 18 hrs by fluorescent assay; format: functional, Homo sapiens
[5] = Stability in human HEK293T cellular extract assessed as intact compound level at 1 mM incubated after 48 hrs at 37 degC; format: ADME, cell-based, HEK-293T; settings: read-out: Stability
A549 = experiment: Cytotoxicity in Fhit-negative human A549 cells after 72 hrs bu MTT assay; format: functional, cell-based; settings: A549, 72 h
HeLa = experiment: Cytotoxicity in Fhit-negative human HeLa cells after 72 hrs bu MTT assay; format: functional, cell-based
HEK-293T [6] = experiment: Induction of apoptosis in Fhit-positive HEK293T cells at 5 uM after 24 hrs by Annexin-V assay (reference value: 3.9 +/- 0.95%); format: functional, Homo sapiens
HEK-293T [7] = experiment: Induction of apoptosis in Fhit-positive HEK293T cells assessed as caspase-8 activation at 5 uM in presence of Fhit-specific siRNA after 18 hrs by fluorescent assay; format: functional, cell-based; settings: Homo sapiens
[8] = target: Bis(5'-adenosyl)-triphosphatase (Homo sapiens, UniProt P49789); experiment: Inhibition of Fragile histidine triad protein hydrolytic activity
HEK-293T [9] = experiment: Induction of apoptosis in Fhit-positive HEK293T cells assessed as caspase-9 activation at 5 uM after 18 hrs by luminescent assay; format: functional, Homo sapiens
HEK-293T [10] = experiment: Induction of apoptosis in Fhit-positive HEK293T cells assessed as caspase-8 activation at 5 uM after 18 hrs by luminescent assay; format: functional, Homo sapiens
HEK-293T [11] = experiment: Induction of apoptosis in Fhit-positive HEK293T cells assessed as caspase-3 activation at 5 to 10 uM after 18 hrs by fluorescent assay; format: functional, cell-based; settings: Homo sapiens
HEK-293T [12] = experiment: Induction of apoptosis in Fhit-positive HEK293T cells at 5 uM after 48 hrs by Annexin-V assay (reference value: 3.9 +/- 0.95%); format: functional, Homo sapiens
HEK-293T [13] = experiment: Induction of apoptosis in Fhit-positive HEK293T cells assessed as caspase-3 activation at 5 uM after 18 hrs by fluorescent assay; format: functional, Homo sapiens
HL-60 = experiment: Cytotoxicity in human HL60 cells after 72 hrs bu MTT assay; format: functional, cell-based; settings: HL-60, 72 h
HEK-293T [14] = experiment: Induction of apoptosis in Fhit-positive HEK293T cells at 20 uM by Annexin-V assay (reference value: 3.9 +/- 0.95%); format: functional, Homo sapiens
HEK-293T [15] = experiment: Induction of apoptosis in Fhit-positive HEK293T cells assessed as caspase-3 activation at 5 uM in presence of Fhit-specific siRNA after 18 hrs by fluorescent assay; format: functional, cell-based; settings: Homo sapiens
[16] = Drug uptake in Fhit-positive HEK293T cells at 7.5 uM after 24 hrs using fluorescein labeled compound; format: ADME, cell-based; settings: human, hek-293t
[17] = Drug uptake in Fhit-positive HEK293T cells Vesicular structures compartment at 7.5 uM after 24 hrs using fluorescein labeled compound; format: ADME, cell-based; settings: human, hek-293t
[18] = Drug uptake in Fhit-positive HEK293T cells cytoplasmic compartment at 7.5 uM after 24 hrs using fluorescein labeled compound; format: ADME, cell-based; settings: human, hek-293t
[19] = Stability in HEK293T cellular extract assessed as compound degradation level at 1 mM incubated after 48 hrs at 37 degC; format: ADME, HEK-293T; settings: human, read-out: Activity
[20] = Stability in medium collected from human HEK293T cells assessed as compound degradation level at 1 mM incubated up to 48 hrs at 37 degC; format: ADME, cell-based, HEK-293T; settings: read-out: Activity

Chain of Bis(5'-adenosyl)-triphosphatase (P49789 whole entry): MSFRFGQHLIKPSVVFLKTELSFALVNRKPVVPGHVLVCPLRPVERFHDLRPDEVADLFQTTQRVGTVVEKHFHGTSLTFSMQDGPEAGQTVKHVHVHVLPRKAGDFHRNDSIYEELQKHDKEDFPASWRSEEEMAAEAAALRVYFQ

With `Nc1ncnc2c1ncn2[C@@H]1O[C@H](COP(=O)(S)OCC(O)COP(=O)(S)OC[C@H]2O[C@@H](n3cnc4c(N)ncnc43)[C@H](O)[C@@H]2O)[C@@H](O)[C@H]1O` (mixture of isomers) the remaining at 48 h, 1000 µM [1] was 97%, the Activity (HEK-293T [2]) was 17% and the IC50 (HEK-293T [3]) was 17.5 µM. The Activity (HEK-293T [4]) was 10%, the remaining at 48 h, 1000 µM [5] was 90% and the IC50 (A549) was greater than 80 µM. For the same compound, the IC50 (HeLa) was greater than 80 µM, the Activity (HEK-293T [6]) was 10.5% and the Activity (HEK-293T [7]) was “inactive”. The Ki [8] was 0.035 µM, the Activity (HEK-293T [9]) was 21% and the Activity (HEK-293T [10]) was 23%. For the same compound, the Activity (HEK-293T [11]) was “inactive”, the Activity (HEK-293T [12]) was 14.24% and the Activity (HEK-293T [13]) was 27%. The IC50 (HL-60) was 9 µM, the Activity (HEK-293T [14]) was 12.27% and the Activity (HEK-293T [15]) was “inactive”.

With `Nc1ncnc2c1ncn2[C@@H]1O[C@H](COP(=O)(S)OCC(O)COP(=O)(S)OCCCCCCNC(=O)c2ccc3c(c2)C2(OC3=O)c3ccc(O)cc3Oc3cc(O)ccc32)[C@@H](O)[C@H]1O` (some centres undefined) the Drug uptake [16] was “Active”, the Drug uptake [17] was “Active” and the Drug uptake [18] was “Active”.

`Nc1ncnc2c1ncn2[C@@H]1O[C@H](COP(=O)(O)OP(=O)(O)OP(=O)(O)OC[C@H]2O[C@@H](n3cnc4c(N)ncnc43)[C@H](O)[C@@H]2O)[C@@H](O)[C@H]1O` showed a remaining at 48 h, 1000 µM [1] of 95%, a metabolised at 48 h, 1000 µM [19] of 88.7% and a degraded at 48 h, 1000 µM [20] of 95%.

For `Nc1ncnc2c1ncn2[C@@H]1O[C@H](COP(=O)(O)OP(=O)(O)OP(=O)(O)OP(=O)(O)OC[C@H]2O[C@@H](n3cnc4c(N)ncnc43)[C@H](O)[C@@H]2O)[C@@H](O)[C@H]1O` [DIADENOSINE TETRAPHOSPHATE], the remaining at 48 h, 1000 µM [1] was 95%, the metabolised at 48 h, 1000 µM [19] was 92.8% and the degraded at 48 h, 1000 µM [20] was 95%.

`Nc1ncnc2c1ncn2[C@@H]1O[C@H](COP(=O)(S)OCC(COP(=O)(O)S)(COP(=O)(S)OC[C@H]2O[C@@H](n3cnc4c(N)ncnc43)[C@H](O)[C@@H]2O)COP(=O)(S)OC[C@H]2O[C@@H](n3cnc4c(N)ncnc43)[C@H](O)[C@@H]2O)[C@@H](O)[C@H]1O` (mixture of isomers) showed a remaining at 48 h, 1000 µM [1] of 97%, an IC50 (HEK-293T [3]) greater than 80 µM and a Ki [8] of 0.035 µM.

`Nc1ncnc2c1ncn2[C@@H]1O[C@H](COP(=O)(S)OCC(COP(=O)(S)OC[C@H]2O[C@@H](n3cnc4c(N)ncnc43)[C@H](O)[C@@H]2O)(COP(=O)(S)OC[C@H]2O[C@@H](n3cnc4c(N)ncnc43)[C@H](O)[C@@H]2O)COP(=O)(S)OC[C@H]2O[C@@H](n3cnc4c(N)ncnc43)[C@H](O)[C@@H]2O)[C@@H](O)[C@H]1O` (mixture of isomers) showed a remaining at 48 h, 1000 µM [1] of 97%, an IC50 (HEK-293T [3]) greater than 80 µM and a Ki [8] of 0.035 µM.

`Nc1ncnc2c1ncn2[C@@H]1O[C@H](COP(=O)(S)OCC(COP(=O)(S)OC[C@H]2O[C@@H](n3cnc4c(N)ncnc43)[C@H](O)[C@@H]2O)OP(=O)(S)OC[C@H]2O[C@@H](n3cnc4c(N)ncnc43)[C@H](O)[C@@H]2O)[C@@H](O)[C@H]1O` (mixture of isomers) showed a remaining at 48 h, 1000 µM [1] of 97%, an IC50 (HEK-293T [3]) greater than 80 µM and a Ki [8] of 0.035 µM.

`Nc1ncnc2c1ncn2[C@@H]1O[C@H](COP(=O)(S)OCC(COP(=O)(S)OC[C@H]2O[C@@H](n3cnc4c(N)ncnc43)[C@H](O)[C@@H]2O)OP(=O)(O)S)[C@@H](O)[C@H]1O` (mixture of isomers) gave a remaining at 48 h, 1000 µM [1] of 97%, an IC50 (HEK-293T [3]) greater than 80 µM and a Ki [8] of 0.035 µM.
